Test results from patent US20120251492A1, “TRITERPENE DERIVATIVE AND AGENT FOR PREVENTING OR TREATING CHRONIC HEPATITIS C” (MEIJI SEIKA PHARMA CO., LTD., priority 2009, published 2012).
Like-named read-outs stand apart in the source and are kept apart here.

How the values were obtained:
[1] = tested on: HCV (Con1 Strain) replicon; test: microbe, parasite or virus in culture; assay type: cell-based, hepatitis C virus (HCV) Con1 strain, in Huh7 cells; conditions: read-out: IC50 Value (50% growth inhibitory concentration)
From the text: The compounds represented by the formula (I) were subjected to an HCV replicon assay and a cytotoxicity test.
In order to quantify the degree of HCV virus proliferation, a material was constructed by introducing a luciferase gene as a reporter gene into the genomic gene sequence of HCV Cont strain. The luciferase gene was introduced in the form of fusion with a neomycin-resistant gene, immediately after the IRES (Internal Ribosome Entry Site) of the HCV gene according to the method of Krieger et al., (J. Virol. 75: 4614 (2001)). The constructed RNA was introduced into Huh7 cells by electroporation, and isolated as G418 resistant clone.
The HCV replicon cells comprising the luciferase gene and the neomycin resistance gene were suspended in a culture liquid [D-MEM (SIGMA, D6046) containing 10% of fetal bovine serum (EQUITECH-BIO, INC.)], and seeded onto 96-well plates at 5000 to 8100 cells/well. Test compounds were added at various concentrations, and the cells were cultured under 5% CO2 at 37° C. for 3 days. For adding the test compounds, solutions of the test compounds dissolved in dimethyl sulfoxide (DMSO) were used, and diluted with the culture liquid to appropriate concentrations before use. The experiment was conducted with the final concentrations of DMSO used for dissolving the test compounds being 0.4% during the culturing of the replicon cells. To wells to which no test compound was added, DMSO was added with a final concentration of 0.4%.
Assay plates were prepared for two systems; one of the assays was conducted on a white plate, and the other was conducted on a clear plate. After the culturing for treatments with the test compounds was completed, the white plate was subjected to chemiluminescence measurement by using a Steady-Glo Luciferase Assay System (Promega, E2520) in order to detect effects on HCV replicon proliferation. A EnVision multilabel counter (PerkinElmer 2102) was used for the chemiluminescence measurement. While the value obtained when no test compound was added was taken as 0% inhibition, the inhibitory ratios by the treatments with the agents were calculated.
Regarding the HCV replicon assay, IC50s (50% growth inhibitory concentrations) of the agents were calculated, with the value obtained when no agent was added being taken as 0% inhibition.

[2] = Pharmacokinetics study in mice; assay type: in vivo; conditions: Balb/c mice, male, oral 20 mg/kg suspended in olive oil, LC-MS/MS; for AUC / Cmax / half-life: mouse, plasma; for AUC: read-out: AUC (area under the plasma drug concentration-time curve); for Cmax: read-out: Cmax (maximum plasma concentration); for half-life: read-out: t1/2 (plasma half-life) (converted)
Experimental: Balb/c mice (male, 7 to 8-week old) were used (3 or more mice per group). Each test compound suspended in olive oil was orally administered at 20 mg/kg, and blood was collected from the jugular vein after 2, 6, and 24 hours, or after 2, 4, 6, 8, 24, and 48 hours. The plasma drug concentration was measured by using a liquid chromatograph/mass spectrometry/mass spectrometry (LC-MS/MS). In addition, pharmacokinetics parameters were obtained from change in the obtained plasma concentration.

[3] = Hepatitis C virus, Huh-7, 72 h, HCV replicon cells (Huh7) with luciferase gene, cultured 3 days with test compound, 0.4% DMSO

| Structure (SMILES) | IC50 [1, 3] [µM] | AUC [2] [ng·h/mL] | Cmax [2] [ng/mL] | half-life [2] [h] | further results |
| --- | --- | --- | --- | --- | --- |
| CO[C@@H]1CC(C)(C)CC2C3=CCC4[C@@]5(C)CC[C@H](O)[C@](C)(C(=O)O)C5CC[C@@]4(C)[C@]3(C)CC[C@]21C (stereo partly drawn) [Compound 14, 3β-hydroxy-22β-methoxyolean-12-en-24-oic acid] | 5.57 | 81100 ± 18300 | 4800 ± 1100 | 13.9 ± 1 |  |
| CC1(C)C[C@@H](OCCCOc2ccc(C(=O)O)cc2)[C@]2(C)CC[C@]3(C)C(=CCC4[C@@]5(C)CC[C@H](O)[C@](C)(CO)C5CC[C@]43C)[C@@H]2C1 (stereo partly drawn) [Compound 8, 22β-(3-(4-carboxyphenyl)oxypropoxy)olean-12-ene-3β,24-diol] | 6.99 |  |  |  |  |
| C=CCO[C@@H]1CC(C)(C)C[C@H]2C3=CCC4[C@@]5(C)CC[C@H](O)[C@](C)(C(=O)O)C5CC[C@@]4(C)[C@]3(C)CC[C@@]12C (stereo partly drawn) [Compound 13, 22β-allyloxyolean-12-ene-3β-hydroxy-24-oic acid] | 7.05 | 74900 ± 16300 | 4800 ± 1500 | 13 ± 5.5 |  |
| CC1(C)C[C@@H](OCc2ccc(C(=O)O)cc2)[C@]2(C)CC[C@]3(C)C(=CCC4[C@@]5(C)CC[C@H](O)[C@](C)(CO)C5CC[C@]43C)[C@@H]2C1 (stereo partly drawn) [Compound 1, 22β-(4-carboxybenzyloxy)olean-12-ene-3β,24-diol] | 13.5 |  |  |  |  |
| CC1(C)C[C@@H](OCc2ccc(CN3CCOCC3)cc2)[C@]2(C)CC[C@]3(C)C(=CCC4[C@@]5(C)CC[C@H](O)[C@](C)(CO)C5CC[C@]43C)[C@@H]2C1 (stereo partly drawn) [Compound 9, 22β-(4-(4-morpholylmethyl)benzyloxy)olean-12-ene-3β,24-diol] | 9.13 |  |  |  |  |
| CO[C@@H]1CC(C)(C)C[C@H]2C3=CC[C@@H]4[C@@]5(C)CC[C@H](O)[C@](C)(CO)[C@@H]5CC[C@@]4(C)[C@]3(C)CC[C@@]12C [Compound 17, 22β-methoxyolean-12-ene-3β,24-diol, reference compound] |  |  |  |  | IC50 ([1]; HCV replicon cells (Huh7) with luciferase gene, cultured 3 days with test compound, 0.4% DMSO): > 20 µM; AUC (area under the plasma drug concentration-time curve) [2]: 35600 ± 9700 ng·h/mL; Cmax (maximum plasma concentration) [2]: 2600 ± 700 ng/mL; t1/2 (plasma half-life) [2]: 7.4 ± 0.4 h |
| CC1(C)C[C@@H](OCc2ccc(C=O)cc2)[C@]2(C)CC[C@]3(C)C(=CCC4[C@@]5(C)CC[C@H](O)[C@](C)(CO)C5CC[C@]43C)[C@@H]2C1 (stereo partly drawn) [Compound 4, 22β-(4-formylbenzyloxy)olean-12-ene-3β,24-diol] | 3.59 |  |  |  |  |
| CN(C)Cc1ccc(CO[C@@H]2CC(C)(C)C[C@H]3C4=CCC5[C@@]6(C)CC[C@H](O)[C@](C)(CO)C6CC[C@@]5(C)[C@]4(C)CC[C@@]23C)cc1 (stereo partly drawn) [Compound 10, 22β-(4-dimethylaminomethylbenzyloxy)olean-12-ene-3β,24-diol] | 3.68 |  |  |  |  |
| CC1(C)C[C@@H](OCc2ccccc2)[C@]2(C)CC[C@]3(C)C(=CCC4[C@@]5(C)CC[C@H](O)[C@](C)(C(=O)O)C5CC[C@]43C)[C@@H]2C1 (stereo partly drawn) [Compound 12, 22β-benzyloxyolean-12-ene-3β-hydroxy-24-oic acid] | 5.54 | 74700 ± 11000 | 4800 ± 1100 | 11.9 ± 2.7 |  |
| CC1(C)C[C@@H](OCc2ccc(CO)cc2)[C@]2(C)CC[C@]3(C)C(=CCC4[C@@]5(C)CC[C@H](O)[C@](C)(CO)C5CC[C@]43C)[C@@H]2C1 (stereo partly drawn) [Compound 3, 22β-(4-hydroxymethylbenzyloxy)olean-12-ene-3β,24-diol] |  |  |  |  | IC50 ([1]; Hepatitis C virus, Huh-7, 72 h): 1.56 µM |
| CC1(C)C[C@@H](OCc2ccc(CNc3ccccc3)cc2)[C@]2(C)CC[C@]3(C)C(=CCC4[C@@]5(C)CC[C@H](O)[C@](C)(CO)C5CC[C@]43C)[C@@H]2C1 (stereo partly drawn) [Compound 11, 22β-(4-phenylaminomethylbenzyloxy)olean-12-ene-3β,24-diol] | 13 |  |  |  |  |
| CC1(C)C[C@@H](OCCCO)[C@]2(C)CC[C@]3(C)C(=CCC4[C@@]5(C)CC[C@H](O)[C@](C)(CO)C5CC[C@]43C)[C@@H]2C1 (stereo partly drawn) [Compound 7, 22β-(3-hydroxypropoxy)olean-12-ene-3β,24-diol] | 5.32 |  |  |  |  |
| C#CCO[C@@H]1CC(C)(C)C[C@H]2C3=CCC4[C@@]5(C)CC[C@H](O)[C@](C)(CO)C5CC[C@@]4(C)[C@]3(C)CC[C@@]12C (stereo partly drawn) [Compound 2, 22β-(2-propynyloxy)olean-12-ene-3β,24-diol] | 5.73 | 44700 ± 16300 | 2800 ± 1000 | 10 ± 1.2 |  |
